Among the data in patent publication US20100184815A1 (priority 2008, published 2010) are EC50 values, retold here.

A value given as a limit tells only on which side of the number the result lay.

Format in all cases: cell-based
The target in experiment [1] is T1, Full Length hPPARβ/δ (Homo sapiens, UniProt Q03181).
T1 construct: Full Length; expressed in transfected cells; host or cells: Cos cells
T1 sequence (Q03181 1-441): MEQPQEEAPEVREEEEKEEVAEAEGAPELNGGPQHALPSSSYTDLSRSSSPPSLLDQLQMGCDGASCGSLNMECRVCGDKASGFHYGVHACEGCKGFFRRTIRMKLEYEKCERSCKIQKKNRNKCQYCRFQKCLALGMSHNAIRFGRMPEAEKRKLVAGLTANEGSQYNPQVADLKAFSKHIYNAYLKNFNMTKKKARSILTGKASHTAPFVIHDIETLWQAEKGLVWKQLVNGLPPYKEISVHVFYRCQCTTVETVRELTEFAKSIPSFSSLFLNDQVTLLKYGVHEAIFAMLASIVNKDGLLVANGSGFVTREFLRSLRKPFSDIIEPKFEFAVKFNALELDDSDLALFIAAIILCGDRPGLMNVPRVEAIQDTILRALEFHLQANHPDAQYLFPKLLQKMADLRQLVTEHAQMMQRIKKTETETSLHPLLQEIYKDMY
Description: Full length hPPARβ/δ transfection assay. Particulars: full length receptor; scale 1-5; read-out: Full Length hPPAR β/δ EC50 (scaled number). Here is the method:
(§1) Transient transfection assays. Cos cells were seeded in 60-mm dishes at a density of 5.5×10^5 cells/dish in Dulbecco's modified Eagle's medium (DMEM) supplemented with 10% fetal calf serum (FCS) and incubated at 37° C. for 24 hours before transfection. Cells were transfected in Opti-MEM (Gibco; Invitrogen, Carlsbad, Calif.) without FCS for 3 hours at 37° C., using polyethylenimine, with reporter and expression plasmids. The plasmid pBluescript (Stratagene, La Jolla, Calif.) was used as carrier DNA to set the final amount of DNA to 5.5 μg/dish. The pCMV-b-galactosidase expression plasmid was cotransfected as a control for transfection efficiency. Transfection was stopped by the addition of DMEM supplemented with 10% FCS, and cells were then incubated at 37° C. After 16 hours, cells were trypsinized and seeded in 96-well plates at the density of 2×10^4 cells/well and incubated for 6 hours in 10% FCS-containing DMEM. Cells were then incubated for 24 hours in DMEM containing 0.2% FCS and increasing concentrations of the compound tested or vehicle (DMSO). At the end of the experiment, cells were washed once with ice-cold PBS, lysed and the luciferase and b-galactosidase assays were performed in a luminometer and spectrophotomer. Transfection efficiencies were normalized with the b-galactosidase activity assay. Half-maximal effective concentration (EC50) was estimated using Prism software (GraphPad). All transfection experiments were performed at least three times.
(§2) In the following tables, proprietary compound EC50 values for hPPAR α, β, δ and γ are shown. The EC50 value is the concentration of a drug that induces a response halfway between the baseline and maximum, and is commonly used as a measure of drug potency. EC50 values are reported on a scale of 1 through 5, wherein the value scale is defined for each receptor as follows: […]

Experiment [2] concerns the target T2, Gal-4 hPPARγ (Homo sapiens, UniProt P37231).
T2 construct: Plasmids pGal4-hPPARα, pGal4-hPPARγ, pGal4-hPPARδ and pG5-TK-pGL3 were constructed as previously described by Staels, Bart, et al., Nature 1998 Jun; 25
T2 sequence (P37231 238-505 limits assumed): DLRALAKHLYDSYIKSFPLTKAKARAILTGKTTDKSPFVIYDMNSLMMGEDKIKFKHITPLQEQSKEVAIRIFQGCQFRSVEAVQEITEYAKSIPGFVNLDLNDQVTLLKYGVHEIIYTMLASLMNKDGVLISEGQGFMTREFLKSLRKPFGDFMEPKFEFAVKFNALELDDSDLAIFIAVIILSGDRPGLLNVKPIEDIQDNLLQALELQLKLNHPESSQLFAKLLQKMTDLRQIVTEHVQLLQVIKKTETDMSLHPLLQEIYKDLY
The experiment in a line: Gal4-hPPARγ transient transfection reporter assay in Cos cells. To be noted: luciferase reporter, 24 hours with compound, scale 1-5, read-out: Gal-4 hPPAR γ EC50 (scaled number). In outline:
(§3)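 Cos cells transiently co-transfected with Gal4-hPPAR expression plasmid, pG5-TK-pGL3 luciferase reporter and β-galactosidase control, then treated 24 h with increasing compound concentrations in DMEM containing 0.2% FCS. Luciferase normalised to β-galactosidase; EC50 from curve fit, at least three experiments.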

Experiment [3] concerns the target T3, Full Length hPPARγ (Homo sapiens, UniProt P37231).
T3 construct: Full Length; expressed in transfected cells; host or cells: Cos cells
T3 sequence (P37231 1-505): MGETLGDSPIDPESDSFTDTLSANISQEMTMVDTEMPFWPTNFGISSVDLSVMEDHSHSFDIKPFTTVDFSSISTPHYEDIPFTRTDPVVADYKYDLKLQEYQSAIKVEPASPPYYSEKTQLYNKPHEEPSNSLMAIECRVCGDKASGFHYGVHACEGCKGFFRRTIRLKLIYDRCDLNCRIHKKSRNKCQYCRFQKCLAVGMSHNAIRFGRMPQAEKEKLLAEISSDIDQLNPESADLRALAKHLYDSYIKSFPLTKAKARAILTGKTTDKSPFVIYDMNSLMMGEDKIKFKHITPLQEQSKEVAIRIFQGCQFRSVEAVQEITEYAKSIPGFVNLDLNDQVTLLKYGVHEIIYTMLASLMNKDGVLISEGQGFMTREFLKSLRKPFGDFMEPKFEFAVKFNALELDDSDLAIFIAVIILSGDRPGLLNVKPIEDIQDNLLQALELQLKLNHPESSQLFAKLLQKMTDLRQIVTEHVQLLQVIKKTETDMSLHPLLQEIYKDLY
The experiment in a line: Full length hPPARγ transfection assay. Particulars: full length receptor; scale 1-5; read-out: Full Length hPPAR γ EC50 (scaled number). Here is the method: as §1, §2

Experiment [4] concerns the target T4, Gal-4 hPPARα (Homo sapiens, UniProt Q07869).
T4 construct: Plasmids pGal4-hPPARα, pGal4-hPPARγ, pGal4-hPPARδ and pG5-TK-pGL3 were constructed as previously described by Staels, Bart, et al., Nature 1998 Jun; 25
T4 sequence (Q07869 200-468 limits assumed): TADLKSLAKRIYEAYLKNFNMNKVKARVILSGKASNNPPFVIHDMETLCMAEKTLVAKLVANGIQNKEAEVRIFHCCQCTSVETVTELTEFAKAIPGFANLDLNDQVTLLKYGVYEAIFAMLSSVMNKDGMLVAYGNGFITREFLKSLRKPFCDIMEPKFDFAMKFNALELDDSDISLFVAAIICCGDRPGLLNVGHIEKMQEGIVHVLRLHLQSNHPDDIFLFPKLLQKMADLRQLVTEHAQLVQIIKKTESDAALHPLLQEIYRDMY
Description: Gal4-hPPARα transient transfection reporter assay in Cos cells. To be noted: luciferase reporter, 24 hours with compound, scale 1-5, read-out: Gal-4 hPPAR α EC50 (scaled number). In a few lines: as §3
On the technique in general: A reporter such as luciferase makes a cellular process visible.

In experiment [5] the target is T5, Full Length hPPARα (Homo sapiens, UniProt Q07869).
T5 construct: Full Length; expressed in transfected cells; host or cells: Cos cells
T5 sequence (Q07869 1-468): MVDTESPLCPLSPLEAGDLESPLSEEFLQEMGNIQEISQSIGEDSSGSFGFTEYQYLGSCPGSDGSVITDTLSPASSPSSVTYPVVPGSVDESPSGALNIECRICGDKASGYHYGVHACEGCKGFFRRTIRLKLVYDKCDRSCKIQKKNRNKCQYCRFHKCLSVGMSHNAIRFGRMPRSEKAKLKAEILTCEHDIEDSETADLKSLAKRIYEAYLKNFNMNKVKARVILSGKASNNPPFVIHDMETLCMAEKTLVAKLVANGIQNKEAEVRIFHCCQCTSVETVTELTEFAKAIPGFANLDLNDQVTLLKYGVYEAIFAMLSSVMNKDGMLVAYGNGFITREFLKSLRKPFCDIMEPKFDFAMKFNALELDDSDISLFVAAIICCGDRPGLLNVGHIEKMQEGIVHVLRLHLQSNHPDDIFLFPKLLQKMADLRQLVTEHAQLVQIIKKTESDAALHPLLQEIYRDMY
The experiment in a line: Full length hPPARα transfection assay. Particulars: full length receptor; read-out: Full Length hPPAR α EC50 (scaled number). Here is the method:
as §1, §2

The target of experiment [6] is T6, Gal-4 hPPARβ/δ (Homo sapiens, UniProt Q03181).
T6 construct: Plasmids pGal4-hPPARα, pGal4-hPPARγ, pGal4-hPPARδ and pG5-TK-pGL3 were constructed as previously described by Staels, Bart, et al., Nature 1998 Jun; 25
T6 sequence (Q03181 171-441 limits assumed): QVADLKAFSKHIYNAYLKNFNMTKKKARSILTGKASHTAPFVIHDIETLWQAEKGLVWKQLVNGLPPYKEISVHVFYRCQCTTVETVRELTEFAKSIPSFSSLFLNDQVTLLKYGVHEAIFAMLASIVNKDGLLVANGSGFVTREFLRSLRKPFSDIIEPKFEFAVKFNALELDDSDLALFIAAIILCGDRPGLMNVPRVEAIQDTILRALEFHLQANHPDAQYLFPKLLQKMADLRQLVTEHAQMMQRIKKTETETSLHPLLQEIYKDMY
The experiment in a line: Gal4-hPPARδ transient transfection reporter assay in Cos cells. To be noted: luciferase reporter, 24 hours with compound, scale 1-5, read-out: Gal-4 hPPAR β/δ EC50 (scaled number). In a few lines:
as §3

In the case of `Cn1nc(-c2ccccc2)cc1COC(=O)c1ccc(SC(C)(C)C(=O)O)cc1` [Compound 1, 2-methyl-2-(4-(((1-methyl-3-phenyl-1H-pyrazol-5-yl)methoxy)carbonyl)phenylthio)propanoic acid], the EC50 was over 1000 nM in experiment [1]; over 1000 nM in experiment [2]; 51 to 200 nM in experiment [3]; 1 to 50 nM in experiment [4]; under 1 nM in experiment [5]; over 1000 nM in experiment [6].

For the compound `CC(C)c1ccc(-n2cc(COC(=O)c3ccc(SC(C)(C)C(=O)O)cc3)nn2)cc1` [Compound 56, 2-(4-(((1-(4-isopropylphenyl)-1H-1,2,3-triazol-4-yl)methoxy)carbonyl)phenylthio)-2-methylpropanoic acid], the EC50 was over 1000 nM in experiment [2]; 201 to 999 nM in experiment [3]; 51 to 200 nM in experiment [4]; 1 to 50 nM in experiment [5]; over 1000 nM in experiment [6].

Regarding `CCCn1c(COC(=O)c2ccc(OC(C)(C)C(=O)O)cc2)nn(Cc2ccc(OC(F)(F)F)cc2)c1=O` [Compound 168, 2-methyl-2-(4-(((5-oxo-4-propyl-1-(4-(trifluoromethoxy)benzyl)-4,5-dihydro-1H-1,2,4-triazol-3-yl)methoxy)carbonyl)phenoxy)propanoic acid], the EC50 in experiment [2] was over 1000 nM; in experiment [3], over 1000 nM; in experiment [4] it was 201 to 999 nM; in experiment [5], 51 to 200 nM; in experiment [6] it was over 1000 nM.

Consider `CCCCCCCn1c(COC(=O)c2ccc(OC(C)(C)C(=O)O)c(OC)c2)nn(Cc2ccc(C(C)(C)C)cc2)c1=O` [Compound 212, 2-(4-(((1-(4-tert-butylbenzyl)-4-heptyl-5-oxo-4,5-dihydro-1H-1,2,4-triazol-3-yl)methoxy)carbonyl)-2-methoxyphenoxy)-2-methylpropanoic acid], for which the EC50 in experiment [2] is 51 to 200 nM; in experiment [3], 51 to 200 nM; in experiment [4], under 1 nM; in experiment [5], under 1 nM; in experiment [6] it was over 1000 nM.

In the case of `CCCCCCn1c(COC(=O)c2ccc(OC(C)(C)C(=O)O)c(OC)c2)nn(Cc2ccc(C(C)(C)C)cc2)c1=O` [Compound 185, 2-(4-(((1-(4-tert-butylbenzyl)-4-hexyl-5-oxo-4,5-dihydro-1H-1,2,4-triazol-3-yl)methoxy)carbonyl)-2-methoxyphenoxy)-2-methylpropanoic acid], the EC50 in experiment [2] is over 1000 nM; in experiment [4], 1 to 50 nM; in experiment [5], under 1 nM; in experiment [6], over 1000 nM.

Turning to `CC(C)(Sc1ccc(C(=O)OCCn2cc(-c3ccc(C(C)(C)C)cc3)nn2)cc1)C(=O)O` [Compound 89, 2-(4-((2-(4-(4-tert-butylphenyl)-1H-1,2,3-triazol-1-yl)ethoxy)carbonyl)phenylthio)-2-methylpropanoic acid], the EC50 is over 1000 nM in experiment [2], 51 to 200 nM in experiment [4], 1 to 50 nM in experiment [5] and over 1000 nM in experiment [6].
